Laboratory results as given in patent publication US8034781B2, “Angiotensin-(1-7) and angiotensin-(1-7) agonists for inhibition of cancer cell growth” (Wake Forest University Health Sciences, priority 2002, dated 2011).
Square brackets hold non-standard residues; d marks the D form. Ends that are not written are not given here. Sar = CNCC(=O)O

Key:
[1] = tested on: vascular smooth muscle cells (VSMCs); format: cell-based, Sprague-Dawley rats; settings: for effect of antagonist on Ang-(1-7) attenuation of serum-stimulated thymidine incorporation: 1 μM Ang-(1-7), FBS (FIG. 2)
Experimental: (§1) Vascular smooth muscle cells were isolated form 12-14 week old Sprague-Dawley rats by explant culture (Freeman, E. J. et al., Hypertension, 1996, 28:104-108). Human lung and breast cancer cell lines were obtained from American Type Tissue Culture (ATTC) and included cells of the SK-LU-1 and A549 cell lines (both of which are derived from adenocarcinomas) as well as SK-MES-1 cells (derived from non-small cell lung tumors) and ZR-75-1 breast cancer cells.
(§2) Cells were grown in DMEM with 10% fetal bovine serum (FBS), […] in a humidified 37° C. incubator gassed with 5% CO2 and 95% room air. Cells were grown to subconfluence in either 24-well cluster plates or 100 mm dishes and made quiescent by treatment for 48 h with serum-depleted growth media, prior to the experiments outlined below to measure cell growth (^3H-thymidine incorporation), cell signaling or apoptosis.
To measure ^3H-thymidine incorporation, quiescent cells were incubated with serum and angiotensin peptides for 24 h at 37° C. ^3H-thymidine (0.25 μCi/well) was added and the cells incubated for an additional 4 h to incorporate the radiolabeled nucleotide. Subsequently, the cell monolayer was washed with cold phosphate-buffered saline (PBS; 50 mM NaPO4, 120 mM NaCl, pH=7.2). The adherent cells were precipitated with cold 10% TCA (4° C. for 30 min) and dissolved in 0.2% SDS in 0.1 N NaOH. Incorporated ^3H-thymidine was determined by liquid scintillation spectrometry, as previously described (Freeman, E. J. et al., Hypertension, 1996, 28:104-108). Growth inhibition was defined as a reduction in the amount of ^3H-thymidine incorporation as compared to the mitogen-stimulated controls.
During an additional 4 h, cell monolayers were pulsed with ^3H-thymidine (0.25 μCi/well) and harvested.

[2] = tested on: SK-LU-1 lung cancer cells; format: cell-based, human; settings: for effect of antagonist on inhibition of serum-stimulated growth by Ang-(1-7): SK-LU-1 (FIG. 7); for effect on serum-stimulated 3H-thymidine incorporation: SK-LU-1, peptide at 1 or 100 nM (FIG. 8)
Experimental: (§6) Cells were grown in DMEM with 10% fetal bovine serum (FBS), 100 μg/mL penicillin and 100 units/mL streptomycin in a humidified 37° C. incubator gassed with 5% CO2 and 95% room air. Cells were grown to subconfluence in either 24-well cluster plates or 100 mm dishes and made quiescent by treatment for 48 h with serum-depleted growth media, prior to the experiments outlined below to measure cell growth (^3H-thymidine incorporation), cell signaling or apoptosis.

AT1 angiotensin receptor = settings: cited from earlier work
AT2 angiotensin receptor = target: T1, AT2 angiotensin receptor (Homo sapiens, UniProt P50052); settings: cited from earlier work
T1 sequence (P50052 1-363): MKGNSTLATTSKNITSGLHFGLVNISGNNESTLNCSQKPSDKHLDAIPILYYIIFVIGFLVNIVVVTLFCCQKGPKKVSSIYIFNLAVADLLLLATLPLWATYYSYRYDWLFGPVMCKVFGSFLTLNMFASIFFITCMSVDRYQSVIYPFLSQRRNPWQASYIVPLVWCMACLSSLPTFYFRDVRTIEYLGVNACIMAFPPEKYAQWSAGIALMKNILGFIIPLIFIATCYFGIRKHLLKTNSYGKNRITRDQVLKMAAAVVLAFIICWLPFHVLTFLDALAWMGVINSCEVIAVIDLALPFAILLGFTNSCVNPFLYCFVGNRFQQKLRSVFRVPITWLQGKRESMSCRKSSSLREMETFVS

[3] = tested on: vascular growth stimulated by balloon catheter injury to the rat carotid artery; assay: Balloon catheter injury to the rat carotid artery, intravenous minipump infusion; format: in vivo
Excerpt: (§3) In these same animals, the cross-sectional area of the neointima was reduced to 0.09±0.01 mm^2 as compared to 0.12±0.02 mm^2 in saline-treated controls (p<0.05).

[4] = tested on: vascular smooth muscle cells (VSMCs); assay: Total cell number of VSMCs by Coulter counter; format: cell-based, Sprague-Dawley rats; settings: Ang II alone
Experimental: Total cell number in response to treatment with Ang-(1-7) was also determined using a Coulter counter. The number of cells per well increased to 142% of basal following treatment with 1% serum.

ERK1 = ERK1 phosphorylation in VSMCs, phospho-specific antibodies; format: cell-based, rat
Experimental: (§4) Reactions were terminated with Triton lysis buffer (50 mM Tris-HCl, pH 7.4, 1% Triton X-100, 100 mM NaCl, 5 mM EDTA, 50 mM NaF, 0.6 μM leupeptin, 0.01 mM Na3VO4 and 0.1 mM PMSF) and protein concentrations determined (Lowry, O. H., et al., J. Biol. Chem., 1951, 193:265-275). Proteins were separated by SDS polyacrylamide gel electrophoresis and transferred to polyvinyl membranes. The activation and autophosphorylation of ERK1 and ERK2 was determined using antibodies specific for the phosphorylated kinases (using antibodies from Cell Signaling Technologies). The immunoreactive product were visualized by enhanced chemiluminescence (ECL, Amersham) and quantified by densitometry, using the MCID image analysis system. The phospho-MAP kinase antibodies only recognize the catalytically activated and phosphorylated forms of MAP kinase (both ERK1 and ERK2 MAP kinase). The blots were also probed with antibodies to ERK1/2, to control for protein loading.
(§5) The activity of the MAP kinases ERK1 and ERK2 in VSMCs was measured using phospho-specific antibodies that only recognize the activated protein kinases.

ERK2 = ERK2 phosphorylation in VSMCs, phospho-specific antibodies; format: cell-based, rat
Experimental: as §4, §5

[5] = Balloon catheter injury to the rat carotid artery, intravenous minipump infusion; format: in vivo; settings: rat, plasma, 24 ug/kg/h; intravenous minipump 24 μg/kg/h, 12 days, carotid artery-injured rats
Excerpt: as §3

[6] = tested on: SK-MES-1 lung cancer cells; format: cell-based, human
Experimental: as §6
To measure ^3H-thymidine incorporation, quiescent cells were incubated with serum and angiotensin peptides for 24 h at 37° C. ^3H-thymidine (0.25 μCi/well) was added and the cells incubated for an additional 4 h to incorporate the radiolabeled nucleotide. Subsequently, the cell monolayer was washed with cold phosphate-buffered saline (PBS; 50 mM NaPO4, 120 mM NaCl, pH=7.2). […] Incorporated ^3H-thymidine was determined by liquid scintillation spectrometry, as previously described (Freeman, E. J. et al., Hypertension, 1996, 28:104-108). […]

[7] = tested on: ZR-75-1 breast cancer cells; format: cell-based, human
Experimental: as §1, §2
To measure ^3H-thymidine incorporation, quiescent cells were incubated with serum and angiotensin peptides for 24 h at 37° C. ^3H-thymidine (0.25 μCi/well) was added and the cells incubated for an additional 4 h to incorporate the radiolabeled nucleotide. […] Incorporated ^3H-thymidine was determined by liquid scintillation spectrometry, as previously described (Freeman, E. J. et al., Hypertension, 1996, 28:104-108). […]

[8] = tested on: vascular growth stimulated by balloon catheter injury to the rat carotid artery; settings: previous studies with rats, 24 μg/kg/hr; cited from earlier work
[9] = lisinopril 20 mg/kg/day for 14 days
[10] = maximal stimulation by 1 μM Ang II

Q: For CCCCC[C@H](O)/C=C/[C@@H]1[C@H]2C/C(=C/CCCC(=O)O)C[C@H]2C[C@H]1O [carbacyclin], which “effect on serum-stimulated 3H-thymidine incorporation” value ([1]; VSMCs, 5 μM (FIG. 10)) is on record?
A: Its value is “reduction”.

Q: For CCc1nc2c(C)cc(C)nc2n1Cc1ccc(-c2ccccc2-c2nn[nH]n2)cc1 [L158,809], which “effect of antagonist on Ang-(1-7) attenuation of serum-stimulated thymidine incorporation” value ([1]; VSMCs) is on record?
A: The value was “unaffected”.

Q: For Cc1cc(Cn2cnc3c2CC(C(=O)O)N(C(=O)C(c2ccccc2)c2ccccc2)C3)ccc1N (centres unmarked) [PD123177], which “effect of antagonist on Ang-(1-7) attenuation of serum-stimulated thymidine incorporation” value ([1]; VSMCs) is on record?
A: Its value is “unaffected”.

Q: What about the “effect of antagonist on inhibition of serum-stimulated growth by Ang-(1-7)” value [2] of the same compound?
A: Its value is “neither AT1 nor AT2 angiotensin receptor antagonists Losartan and PD123177, respectively, were effective”.

Q: Which “effect of antagonist on inhibition of serum-stimulated growth by Ang-(1-7)” value [2] does the source give for CCCCc1nc(Cl)c(CO)n1Cc1ccc(-c2ccccc2-c2nn[nH]n2)cc1 [Losartan] here?
A: The value was “neither AT1 nor AT2 angiotensin receptor antagonists Losartan and PD123177, respectively, were effective”.

Q: For “Asp-Arg-Val-Tyr-Ile-His-[D]Ala (DRVYIH[dA]) [[D-Ala^7]-Ang-(1-7)]”, which “effect of antagonist on Ang-(1-7) attenuation of serum-stimulated thymidine incorporation” value ([1]; VSMCs) is on record?
A: Its value is “blocked”.

Q: And the “effect of antagonist on inhibition of serum-stimulated growth by Ang-(1-7)” value [2]?
A: The value was “blocked”.

Q: What about the “competition at the AT1 receptor” value (AT1 angiotensin receptor) of the same compound?
A: Its value is “poor competitor”.

Q: And the “competition at the AT2 receptor” value (AT2 angiotensin receptor)?
A: Its value is “poor competitor”.

Q: What does the source list for NCCCC[C@H](N[C@@H](CCc1ccccc1)C(=O)O)C(=O)N1CCC[C@H]1C(=O)O [lisinopril]?
A: cross-sectional area of the neointima [3, 9]: 0.09±0.01 mm^2; elevation of plasma levels of Ang-(1-7) vs saline [3, 9]: 2.3 fold; plasma levels of Ang-(1-7) ([3]; lisinopril 20 mg/kg/day for 14 days, balloon catheter injury): 99.1 ± 6.7 pM

Q: With “Arg-Val-Tyr-Ile-His-Pro-Phe (RVYIHPF; listed as Homo sapiens) [Ang-(2-8)]” as the compound, how does the “effect on serum-stimulated 3H-thymidine incorporation” value [2] read?
A: The value was “ineffective”.

Q: Which “effect on 3H-thymidine incorporation into VSMCs” value ([1]; peptide alone, dose response (FIG. 1)) does the source give for “Asp-Arg-Val-Tyr-Ile-His-Pro-Phe (DRVYIHPF; listed as Homo sapiens) [Ang II]” here?
A: Its value is “dose-dependent stimulation”.

Q: What about the “number of cells per well” value [4] of the same compound?
A: The value was 145 % of basal.

Q: What about the “effect on serum-stimulated 3H-thymidine incorporation” value [2] of the same compound?
A: Its value is “ineffective”.

Q: And the “increase in ERK1 phosphorylation over basal” value (ERK1; [10])?
A: The value was 37 fold.

Q: And the “increase in ERK2 phosphorylation over basal” value (ERK2; [10])?
A: The value was 166 fold.

Q: For PDGF, which “increase of ERK1 activity over basal” value (ERK1; 10 ng/mL PDGF) is on record?
A: Its value is 16 fold.

Q: What about the “increase of ERK2 activity over basal” value (ERK2; 10 ng/mL PDGF) of the same compound?
A: Its value is 26 fold.

Q: For DRVYIHPFHL [Ang I], which “effect on serum-stimulated 3H-thymidine incorporation” value [2] is on record?
A: The value was “ineffective”.

Q: For CC[C@H](C)[C@H](NC(=O)[C@H](Cc1ccc(O)cc1)NC(=O)[C@@H](NC(=O)[C@H](CCCNC(=N)N)NC(=O)[C@@H](N)CC(=O)O)C(C)C)C(=O)N[C@@H](Cc1c[nH]cn1)C(=O)N1CCC[C@H]1C(=O)O [Ang-(1-7), Asp-Arg-Val-Tyr-Ile-His-Pro], which level at time molar at 288 h [5] is on record?
A: Its level at time molar at 288 h is 0.131 ± 0.0397 nM.

Q: What about the blood pressure ([3]; Ang-(1-7) infusion vs saline) of the same compound?
A: The blood pressure was “similar”.

Q: And the heart rate ([3]; Ang-(1-7) infusion vs saline)?
A: Its heart rate is “similar”.

Q: And the IC50 [2]?
A: Its IC50 is 0.05 nM.

Q: And the IC50 [6]?
A: Its IC50 is 0.4 nM.

Q: And the IC50 [7]?
A: The IC50 was 0.02 nM.

Q: What about the “change in weight, blood pressure, or heart rate” value [8] of the same compound?
A: Its value is “no change”.

Q: And the “IC50 levels at the AT2 angiotensin receptor” value (AT2 angiotensin receptor)?
A: Its value is “micromolar range”.

Q: With C#CCCCCCCCCCCCCCCCC(=O)O [17-octadecynoic acid] as the compound, how does the “effect on growth inhibition by Ang-(1-7)” value ([1]; VSMCs, cytochrome P450 inhibitor) read?
A: The value was “neither a lipoxygenase inhibitor nor the cytochrome P450 inhibitor 17-octadecynoic acid had any effect”.

Q: With CCN(CC)CC.Nc1ncnc2c1ncn2[C@@H]1O[C@@H]2COP(O)(=S)O[C@H]2[C@H]1O (some centres unmarked) [Rp-cAMPS, Rp-adenosine-3′,5′-cyclic monphosphophorothioate triethylamine salt] as the compound, how does the “effect on reduction in serum-stimulated 3H-thymidine incorporation by Ang-(1-7) or carbacyclin” value ([1]; VSMCs, pretreatment 10 μM (FIG. 10)) read?
A: Its value is “completely blocked”.

Q: Which “effect on serum-stimulated 3H-thymidine incorporation” value [2] does the source give for “Val-Tyr-Ile-His-Pro (VYIHP; listed as Homo sapiens) [Ang-(3-7)]” here?
A: Its value is “ineffective”.

Q: With Cc1cc(Cn2cnc3c2C[C@@H](C(=O)O)N(C(=O)C(c2ccccc2)c2ccccc2)C3)ccc1N(C)C [PD 123319] as the compound, how does the “effect of antagonist on Ang-(1-7) attenuation of serum-stimulated thymidine incorporation” value ([1]; VSMCs) read?
A: Its value is “not prevented”.

Q: With “Val-Tyr-Ile-His-Pro-Phe (VYIHPF; listed as Homo sapiens) [Ang-(3-8)]” as the compound, how does the “effect on serum-stimulated 3H-thymidine incorporation” value [2] read?
A: Its value is “ineffective”.

Q: For “Sar-Arg-Val-Tyr-Ile-His-Pro-Thr ([Sar]RVYIHPT) [[Sar^1-Thr^8]-Ang II]”, which “effect of antagonist on Ang-(1-7) attenuation of serum-stimulated thymidine incorporation” value ([1]; VSMCs) is on record?
A: Its value is “completely blocked”.
